# From US12595231B2 (priority 2022, dated 2026)
# Where two headings read alike, the source gives them in different places.
# Key:
# [1] = VH-XRPD analysis (variable humidity); format: physicochemical
# [2] = DVS analysis (water uptake); format: physicochemical; conditions: for hygroscopicity: from DVS water uptake at 80% RH
# [3] = primary salt formation assessment: solution degradation (HPLC of mother liquor); format: physicochemical; conditions: salt formation experiment
# Protocol: HPLC analysis was carried out to determine the chemical purity of the mesembrine and to provide information on any impurities. The following conditions were use: • Column: Waters Acquity BEH 018 1.7 μm 150 mm×2.1 mm • Column Temperature: 33° C. • Autosampler Temperature: 25° C. • UV Wavelength: 280 nm • Injection Volume: 5 μL • Flow Rate: 0.29 mL/min • Mobile Phase A: 0.1% NH4 in H2O • Mobile Phase B: Methanol:Water 20:80% v/v • Gradient Program: […]
# The experiments were then temperature cycled between the upper temperature limit (specified in Table 3.1) and 5° C. at 0.1° C./min, with 1 h holds at the upper temperature limit, and 5° C. for ca. 72 h.
# After temperature cycling, solids were isolated from experiments at 5° C., and analysed by XRPD.
# [4] = salt hydration study in methanol/water of known water activity; format: physicochemical; conditions: 25° C.; for Observation: 24 h; for Solubility: methanol/water, all levels of water activity (aw 0.2, 0.5, 0.8)
# Protocol: Approximately 20 mg of the hydrochloride (HCl), besylate and fumarate salts were weighed into 3×2 mL push cap vials. 0.05-0.1 mL of relevant solvent system was added to each vial, at 25° C.
# Methanol/water solvent systems (99:1, 75:25, 33:67) of known water activity (aw 0.2, 0.5 and 0.8 respectively) were used. The experiment was stirred for ca. 24 h. After 24 h, any slurries were centrifuged, and the solids analysed by XRPD.
# An additional hydration study was required in order to repeat the salt hydration studies, for the HCl salt and the besylate salt due to dissolution in the first set of experiments:
# For each salt, approximately 10 mg was weighed into 4×2 mL vials and a stirrer bar added. 10 μL of each solvent system was added, at 25° C. The experiments were stirred for 24 h, and any solids recovered were then analysed by XRPD.
# [5] = format: physicochemical; conditions: for HPLC Conc.: 25° C., 24 h, with respect to mesembrine; for HPLC Purity: solution/mother liquor
# Protocol: Approximately 20 mg of each salt was weighed into 3×2 mL push cap vials. 0.1 mL of buffer (Chloride pH 1.2; Acetate pH 4.5; Phosphate pH 6.8) was added to each vial, at 25° C. The experiment was stirred for ca. 24 h. After 2 h, the pH was measured and adjusted if required. After 24 h a final pH measurement was taken. Any slurries were centrifuged and the solids analysed by XRPD.
# 1-week stability study = format: physicochemical; conditions: for Observation: Sigma Aldrich colour chart
# Protocol: A 1-week stability study was performed for hydrochloride salt Pattern 1, besylate salt Pattern 1, fumarate salt Pattern 1+4, and fumarate salt Pattern 4.
# Approximately 5 mg of the salt was weighed into 3×2 mL push cap vials. The 2 mL vials were then each placed inside a 20 mL vial, with the lids on or off as required. The solids were placed under the required stability conditions for 1 week at the following three conditions: 40° C./75% RH (open); 80° C. (closed); Ambient light, temperature and humidity (open)
# After 1-week, visual observations were noted, then the solids were analysed by XRPD and HPLC.
# [6] = primary salt formation assessment: storage at 40° C./75% RH for ca. 24 h, XRPD; format: physicochemical; conditions: solids stored at 40° C./75% RH for ca. 24 h
# Protocol: Solids were dried at 40° C. under vacuum for ca. 24 h, and then re-analysed by XRPD.
# Solids were then stored at 40° C./75% RH for ca. 24 h, and then re-analysed by XRPD.
# [7] = HCl salt, background statement; cited from earlier work
# PDE4B = PDE4B (Homo sapiens, UniProt Q07343); conditions: Harvey et al., 2011; cited from earlier work
# 5-HT transporter = 5-HT transporter (Homo sapiens, UniProt P31645); conditions: Harvey et al., 2011; cited from earlier work
# [8] = 200 mg/mL, water activity aw 0.2 (methanol/water 99:1)
# [9] = 400 mg/mL, water activity aw 0.5 (methanol/water 75:25)
# [10] = 1000 mg/mL, water activity aw 0.2 (methanol/water 99:1)
# [11] = 1000 mg/mL, water activity aw 0.5 (methanol/water 75:25)
# [12] = 1000 mg/mL, water activity aw 0.8 (methanol/water 33:67)
# [13] = Target pH 1.2 (chloride buffer)
# [14] = Target pH 1.2, ca. 20 mg in 0.1 mL buffer
# [15] = Target pH 4.5, ca. 20 mg in 0.1 mL buffer
# [16] = Target pH 6.8 (phosphate buffer)
# [17] = Target pH 6.8, ca. 20 mg in 0.1 mL buffer
# [18] = Ambient light, temperature and humidity, 1 week
# [19] = 200 mg/mL, water activity aw 0.8 (methanol/water 33:67)
# Chain of 5-HT transporter (P31645 whole entry, species assumed): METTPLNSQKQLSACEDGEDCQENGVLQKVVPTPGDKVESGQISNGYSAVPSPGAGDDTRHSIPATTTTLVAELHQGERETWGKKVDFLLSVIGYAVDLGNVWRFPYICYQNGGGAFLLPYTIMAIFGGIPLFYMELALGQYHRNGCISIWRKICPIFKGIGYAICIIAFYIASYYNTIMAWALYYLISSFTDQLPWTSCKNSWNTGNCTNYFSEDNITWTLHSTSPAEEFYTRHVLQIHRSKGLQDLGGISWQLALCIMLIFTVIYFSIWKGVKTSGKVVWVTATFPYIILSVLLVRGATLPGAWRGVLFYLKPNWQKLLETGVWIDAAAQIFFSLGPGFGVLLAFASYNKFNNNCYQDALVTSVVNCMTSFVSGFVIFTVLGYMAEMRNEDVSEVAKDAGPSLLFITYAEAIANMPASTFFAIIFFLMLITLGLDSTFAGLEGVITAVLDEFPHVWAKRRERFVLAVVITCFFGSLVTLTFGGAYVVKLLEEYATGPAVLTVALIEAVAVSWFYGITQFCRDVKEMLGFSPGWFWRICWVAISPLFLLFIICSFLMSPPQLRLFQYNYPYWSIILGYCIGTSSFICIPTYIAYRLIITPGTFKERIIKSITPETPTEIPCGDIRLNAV
# Chain of PDE4B (Q07343 whole entry, species assumed): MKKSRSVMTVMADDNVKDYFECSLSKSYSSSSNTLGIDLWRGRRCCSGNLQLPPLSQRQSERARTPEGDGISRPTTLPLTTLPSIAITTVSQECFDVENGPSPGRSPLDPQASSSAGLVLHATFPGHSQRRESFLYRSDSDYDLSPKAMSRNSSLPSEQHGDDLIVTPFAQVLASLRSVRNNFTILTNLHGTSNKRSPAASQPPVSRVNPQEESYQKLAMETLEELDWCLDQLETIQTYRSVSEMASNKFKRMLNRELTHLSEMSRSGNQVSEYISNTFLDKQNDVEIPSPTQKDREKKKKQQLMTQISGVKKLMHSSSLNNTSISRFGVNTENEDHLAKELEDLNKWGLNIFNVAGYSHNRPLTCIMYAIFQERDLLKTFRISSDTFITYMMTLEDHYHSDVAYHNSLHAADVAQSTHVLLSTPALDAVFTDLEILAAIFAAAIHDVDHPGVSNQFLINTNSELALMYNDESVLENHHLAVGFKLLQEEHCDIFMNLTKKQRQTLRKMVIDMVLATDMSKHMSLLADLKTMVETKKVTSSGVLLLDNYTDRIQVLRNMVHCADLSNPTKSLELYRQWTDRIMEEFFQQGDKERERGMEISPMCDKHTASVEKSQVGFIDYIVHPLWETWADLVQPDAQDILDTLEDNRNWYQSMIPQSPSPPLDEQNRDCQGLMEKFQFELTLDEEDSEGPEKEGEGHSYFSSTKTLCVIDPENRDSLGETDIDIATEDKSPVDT
SMILES,"DVS water uptake ([2]; 80% RH, 25° C.) [wt %]",hygroscopicity ([2]; 25° C.),"HPLC Conc. [5, 13] [mg/mL]","Observation [5, 14]",HPLC Conc. ([5]; Target pH 4.5 (acetate buffer)) [mg/mL],"Observation [5, 15]","HPLC Conc. [5, 16] [mg/mL]","Observation [5, 17]","HPLC Purity ([5]; Target pH 1.2, 24 h) [% area]","HPLC Purity ([5]; Target pH 4.5, 24 h) [% area]","HPLC Purity ([5]; Target pH 6.8, 24 h) [% area]","HPLC (1-week stability study; 40° C./75% RH (open), 1 week) [% area]","XRPD (pattern number) (1-week stability study; 40° C./75% RH (open), 1 week)","Observation (1-week stability study; 40° C./75% RH (open), 1 week)","HPLC (1-week stability study; 80° C. (closed), 1 week) [% area]","XRPD (pattern number) (1-week stability study; 80° C. (closed), 1 week)","Observation (1-week stability study; 80° C. (closed), 1 week)",HPLC (1-week stability study; [18]) [% area],XRPD (pattern number) (1-week stability study; [18]),Observation (1-week stability study; [18]),further results
"COc1ccc(C23CCC(=O)CC2N(C)CC3)cc1OC.O=S(=O)(O)c1ccccc1 (stereo not drawn) [Besylate Pattern 1, mesembrine besylate]",2.3,hygroscopic,>172,Clear solution,>140,Clear solution,>97,Clear solution,98.01,98.02,97.62,98.0,"1,",Light brown solids (BR8),96.7,"1,",Faint beige solids (BE10),98.1,"1,",Faint beige solids (BE10),"solid form by VH-XRPD ([1]; after 17 h at 90% RH): persisted; DVS water uptake ([2]; 90% RH): 13 wt %; solution degradation (Comments) [3]: degradation; Observation [4, 8]: Clear solution; Observation [4, 9]: Clear solution; Observation ([4]; 400 mg/mL, water activity aw 0.8 (methanol/water 33:67)): Clear solution; Observation [4, 10]: Clear solution; Observation [4, 11]: Clear solution; Observation [4, 12]: Clear solution; Solubility ([4]; listed as besylate salt): greater than 1000 mg/mL; Solubility ([4]; listed as besylate salt Pattern 1): > 1000 mg/mL; HPLC (1-week stability study; Input): 98.1 % area; XRPD (pattern number) (1-week stability study; Input): 1,; Observation (1-week stability study; Input): Faint beige solids (BE10); physical stability at 40° C./75% RH (Comments) [6]: physically stable"
"COc1ccc(C23CCC(=O)CC2N(C)CC3)cc1OC.O=C(O)C=CC(=O)O (stereo not drawn) [Fumarate Pattern 1 + 4, mesembrine fumarate]",0.7,slightly hygroscopic,29.44,Slurry,>24,Clear solution,18.98,Oil,96.31,96.07,96.78,95.6,"1/4,",Faint beige solids (BE10,83.4,"6,",Light brown solids (BR8),96.1,"1/4,",Faint beige solids (BE10,"solid form by VH-XRPD ([1]; at 0% RH): fumarate Pattern 5; DVS water uptake ([2]; between 0-20% RH): 2.1 wt %; Observation [4, 19]: Thick slurry; Observation ([4]; 400 mg/mL, water activity aw 0.2 (methanol/water 99:1)): Thick slurry; Observation [4, 9]: Slurry; HPLC (1-week stability study; Input): 96.6 % area; XRPD (pattern number) (1-week stability study; Input): 1/4,; Observation (1-week stability study; Input): Faint beige solids (BE10)"
"COc1ccc(C23CCC(=O)CC2N(C)CC3)cc1OC.Cl (stereo not drawn) [Hydrochloride Pattern 1, reference compound]",5.4,hygroscopic,>105,Clear solution,>146,Clear solution,>122,Clear solution,97.09,93.45,92.87,93.4,"1,",Light brown solids (BR8),92.8,"1,",Light brown solids (BR8),91.5,"1,",Faint beige solids (BE10),"solid form by VH-XRPD ([1]; after 12 h at 90% RH): remained consistent with hydrochloride salt Pattern 1; DVS water uptake ([2]; 90% RH): 20.3 wt %; Solubility [7]: poorly soluble at higher concentrations; solution degradation (Comments) [3]: degradation; Observation [4, 8]: Clear solution; Observation ([4]; 200 mg/mL, water activity aw 0.5 (methanol/water 75:25)): Clear solution; Observation [4, 19]: Clear solution; Observation [4, 10]: Clear solution; Observation [4, 11]: Slurry; Observation [4, 12]: Slurry; HPLC (1-week stability study; Input): 90.5 % area; XRPD (pattern number) (1-week stability study; Input): 1,; Observation (1-week stability study; Input): Faint beige solids (BE10); physical stability at 40° C./75% RH (Comments) [6]: physically stable"
COc1ccc(C23C=CC(O)CC2N(C)CC3)cc1OC (stereo not drawn) [mesembrenol],,,,,,,,,,,,,,,,,,,,,activity against PDE4B activity (PDE4B): potently active; activity in a 5-HT transporter binding assay (5-HT transporter): potently active
